In US12673946B2, “Pyrimidin-4(3H)-one derivatives as TRPV4 antagonists” (RaQualia Pharma Inc., priority 2020, dated 2026):

Biological target: T1, human TRPV4 (Homo sapiens, UniProt Q9HBA0)
T1 construct: host or cells: tetracycline-inducible Flp-In T-REx 293 cells
Assay: Hypotonicity-induced Ca2+ influx (Fluo-4, FDSS)
Assay type: cell-based
How it was run: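 Flp-In T-REx 293 cells with tetracycline-induced human TRPV4, loaded with Fluo-4 for 60 min at 25 °C. Compound added 5 min before hypotonic mannitol/CaCl2 solution. Ca2+ signal recorded for 4.5 min on FDSS.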

[1] = Flp-In T-REx 293 cells expressing human TRPV4, examples listed under heading 'Human IC50<50 nM'
[2] = Flp-In T-REx 293 cells stably expressing human TRPV4, compounds listed by potency bin (<10 nM Tables 96-1/96-2, <3 nM Table 97)

T1 sequence (Q9HBA0 whole entry): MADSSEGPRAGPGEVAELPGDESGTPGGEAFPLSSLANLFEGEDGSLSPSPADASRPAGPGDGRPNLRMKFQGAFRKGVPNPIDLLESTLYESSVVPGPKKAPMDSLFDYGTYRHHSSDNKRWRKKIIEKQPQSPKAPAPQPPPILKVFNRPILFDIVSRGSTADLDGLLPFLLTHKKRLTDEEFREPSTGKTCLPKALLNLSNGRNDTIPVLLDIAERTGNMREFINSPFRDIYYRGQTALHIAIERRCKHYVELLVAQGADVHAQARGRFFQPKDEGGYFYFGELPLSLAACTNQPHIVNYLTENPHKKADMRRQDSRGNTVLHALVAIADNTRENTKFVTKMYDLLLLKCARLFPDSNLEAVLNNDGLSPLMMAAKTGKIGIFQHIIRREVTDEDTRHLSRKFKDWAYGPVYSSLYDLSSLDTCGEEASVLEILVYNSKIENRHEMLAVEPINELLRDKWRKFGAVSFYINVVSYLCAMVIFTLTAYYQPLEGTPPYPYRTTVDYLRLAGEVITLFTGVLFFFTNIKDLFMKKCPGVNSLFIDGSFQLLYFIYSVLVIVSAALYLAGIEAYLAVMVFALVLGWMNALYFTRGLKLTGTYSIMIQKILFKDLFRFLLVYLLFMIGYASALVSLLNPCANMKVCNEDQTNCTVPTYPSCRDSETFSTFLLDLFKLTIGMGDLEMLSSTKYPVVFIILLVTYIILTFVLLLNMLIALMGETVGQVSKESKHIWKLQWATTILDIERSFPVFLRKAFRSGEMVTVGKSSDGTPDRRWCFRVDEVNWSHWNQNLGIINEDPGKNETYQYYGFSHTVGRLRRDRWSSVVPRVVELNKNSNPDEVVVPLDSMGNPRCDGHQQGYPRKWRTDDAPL

| IC50 [1] [nM] | IC50 [2] [nM] | SMILES |
| --- | --- | --- |
| < 50 | < 10 | O=C([C@H](O)c1cccc(Cl)c1)N1CCCc2nc(C3(c4cc(C5CCOCC5)cs4)CC3)[nH]c(=O)c2C1 [18-25] |
| < 50 | < 10 | O=C(Cc1cccc(-c2cccc(C(F)(F)F)c2)c1)N1CCCc2nc(C3(c4cccc(Cl)c4)CC3)[nH]c(=O)c2C1 [17-99] |
| < 50 | < 10 | CN(Cc1ccc2ccccc2c1)C(=O)c1csc(C2(c3nc4c(c(=O)[nH]3)CN(C(=O)[C@H](O)c3cccc(C(F)(F)F)c3)CCC4)CC2)c1 [59-17] |
| < 50 | < 10 | O=C(Cc1cccc(-c2coc3ccccc23)c1)N1CCCc2nc(C3(c4ccccc4)CC3)[nH]c(=O)c2C1 [17-137] |
| < 50 | < 10 | CC(C)c1csc(C2(c3nc4c(c(=O)[nH]3)CN(C(=O)C(F)(F)c3cccc(C(F)(F)F)c3)CC4)CC2)c1 [21-5] |
| < 50 | < 10 | O=C([C@H](O)c1cccc(C(F)(F)F)c1)N1CCCc2nc(C3(c4cccc(OCc5ccccc5)c4)CC3)[nH]c(=O)c2C1 [17-90] |
| < 50 | – | Cc1ccc(-c2cccc(C(O)C(=O)N3CCc4nc(C5(c6ccccc6)CC5)[nH]c(=O)c4C3)c2)cc1F (stereo not shown) [44-34] |
| < 50 | < 3 | CC(C)c1cncc(C2(c3nc4c(c(=O)[nH]3)CN(C(=O)[C@H](O)c3cccc(-c5cccc(Cl)c5)c3)CCC4)CC2)c1 [55-8] |
| < 50 | < 10 | O=C([C@H](O)c1cccc(C(F)(F)F)c1)N1CCCc2nc(C3(c4cc(CCc5ccccc5)cs4)CC3)[nH]c(=O)c2C1 [30-9] |
| < 50 | < 3 | O=C([C@H](O)c1cccc(Cl)c1)N1CCCc2nc(C3(c4cccc(OCc5ccccc5)c4)CC3)[nH]c(=O)c2C1 [17-91] |
| < 50 | < 10 | O=C(C(O)c1cccc(-c2cc(Cl)cc(C(F)(F)F)c2)c1)N1CCc2nc(C3(c4ccccc4)CC3)[nH]c(=O)c2C1 (stereo not shown) [44-3] |
| < 50 | < 10 | CCc1csc(C2(c3nc4c(c(=O)[nH]3)CN(C(=O)[C@H](O)c3cccc(C(F)(F)F)c3)CC4)CC2)c1 [15-5] |
| < 50 | < 10 | O=C(Cc1cccc(OCc2ccccc2)c1)N1CCCc2nc(C3(c4ccccc4)CC3)[nH]c(=O)c2C1 [17-146] |
| < 50 | < 10 | O=C([C@H](O)c1cccc(Cl)c1)N1CCCc2nc(C3(c4cccc(Br)c4)CC3)[nH]c(=O)c2C1 [17-87] |
| < 50 | < 10 | CN(C(=O)c1csc(C2(c3nc4c(c(=O)[nH]3)CN(C(=O)[C@H](O)c3cccc(C(F)(F)F)c3)CCC4)CC2)c1)C1CCCCC1 [59-2] |
| < 50 | < 10 | O=C([C@H](O)c1cccc(-c2cc(Cl)cc(OC(F)(F)F)c2)c1)N1CCCc2nc(C3(c4ccccc4)CC3)[nH]c(=O)c2C1 [49-34] |
| < 50 | < 10 | CC(C)c1cccc(C2(c3nc4c(c(=O)[nH]3)CN(C(=O)C(O)c3cccc(C(C)(C)C)c3)CC4)CC2)c1 (stereo not shown) [14-107] |
| < 50 | < 3 | O=C([C@H](O)c1cccc(Cl)c1)N1CCc2nc(C3(c4cncc(-c5ccccc5)c4)CC3)[nH]c(=O)c2C1 [16-1] |
| < 50 | < 10 | CC(C)c1cncc(C2(c3nc4c(c(=O)[nH]3)CN(C(=O)[C@H](O)c3cccc(-c5cccc(OC(F)(F)F)c5)c3)CCC4)CC2)c1 [55-4] |

| IC50 [1] [nM] | IC50 [2] [nM] | SMILES |
| --- | --- | --- |
| < 50 | < 3 | Cc1ccc(-c2cccc([C@@H](O)C(=O)N3CCCc4nc(C5(c6ccccc6)CC5)[nH]c(=O)c4C3)c2)cc1Cl [49-31] |
| < 50 | – | COc1ccc(-c2cccc(C(O)C(=O)N3CCc4nc(C5(c6ccccc6)CC5)[nH]c(=O)c4C3)c2)cc1 (stereo not shown) [44-58] |
| < 50 | – | O=C([C@H](O)c1cccc(Cl)c1)N1CCc2nc(C3(c4ccccc4)CC3)[nH]c(=O)c2C1 [2-33, (R)-6-(2-(3-chlorophenyl)-2-hydroxyacetyl)-2-(1-phenylcyclopropyl)-5,6,7,8-tetrahydropyrido[4,3-d]pyrimidin-4(3H)-one] |
| < 50 | < 10 | O=C([C@H](O)c1cccc(-c2cccc(C(F)(F)F)c2)c1)N1CCCc2nc(C3(c4cc(C5CCCCC5)cs4)CC3)[nH]c(=O)c2C1 [54-9] |
| < 50 | – | O=C(Cc1ccccc1Oc1ccccc1)N1CCCc2nc(C3(c4ccccc4)CC3)[nH]c(=O)c2C1 [17-143] |
| < 50 | < 10 | CC(C)c1csc(C2(c3nc4c(c(=O)[nH]3)CN(C(=O)C(O)c3cccc(S(F)(F)(F)(F)F)c3)CCC4)CC2)c1 (stereo not shown) [18-18] |
| < 50 | < 3 | O=C([C@H](O)c1cccc(C(F)(F)F)c1)N1CCCc2nc(C3(c4cccc(-c5cccnc5)c4)CC3)[nH]c(=O)c2C1 [42-8] |
| < 50 | < 10 | O=C([C@H](O)c1cccc(C(F)(F)F)c1)N1CCc2nc(C3(c4cc(-c5ccccc5)cs4)CC3)[nH]c(=O)c2C1 [36-1] |
| < 50 | < 10 | CC(C)c1csc(C2(c3nc4c(c(=O)[nH]3)CN(C(=O)C(O)c3cccc(C(C)(C)C)c3)CCC4)CC2)c1 (stereo not shown) [18-15] |
| < 50 | < 10 | O=C([C@H](O)c1cccc(Cl)c1)N1CCc2nc(C3(c4cc(C5CCCCC5)cs4)CC3)[nH]c(=O)c2C1 [15-7] |
| < 50 | – | O=C(C(O)c1cccc(-c2cccc(F)c2)c1)N1CCCc2nc(C3(c4cccc(F)c4)CC3)[nH]c(=O)c2C1 (stereo not shown) [17-48] |
| < 50 | – | O=C([C@H](O)c1cccc(-c2cncc(C(F)(F)F)c2)c1)N1CCCc2nc(C3(c4ccccc4)CC3)[nH]c(=O)c2C1 [49-21] |
| < 50 | – | O=C([C@H](O)c1cccc(-c2cncc(C(F)(F)F)c2)c1)N1CCc2nc(C3(c4ccccc4)CC3)[nH]c(=O)c2C1 [44-92] |
| < 50 | – | O=C(C(O)c1cccc(C(F)(F)F)c1F)N1CCc2nc(C3(c4cccc(F)c4)CC3)[nH]c(=O)c2C1 (stereo not shown) [14-29] |
| < 50 | < 3 | O=C([C@H](O)c1cccc(-c2cccc(C(F)(F)F)c2)c1)N1CCCc2nc(C3(c4cccc(Cl)c4)CC3)[nH]c(=O)c2C1 [50-4] |
| < 50 | < 10 | O=C([C@H](O)c1cccc(-c2cccc(F)c2)c1)N1CCCc2nc(C3(c4cncc(C5CCCCC5)c4)CC3)[nH]c(=O)c2C1 [55-11] |
| < 50 | < 3 | O=C(Cc1cccc(-c2cccc(Cl)c2)c1)N1CCCc2nc(C3(c4cccc(Cl)c4)CC3)[nH]c(=O)c2C1 [17-100] |
| < 50 | < 10 | O=C([C@H](O)c1cccc(-c2cc(Cl)cc(Cl)c2)c1)N1CCCc2nc(C3(c4ccccc4)CC3)[nH]c(=O)c2C1 [49-35] |
| < 50 | < 10 | O=C([C@H](O)c1cccc(C(F)(F)F)c1)N1CCCc2nc(C3(c4cccc(-c5cccc6ccccc56)c4)CC3)[nH]c(=O)c2C1 [42-49] |

| IC50 [1] [nM] | IC50 [2] [nM] | SMILES |
| --- | --- | --- |
| < 50 | < 10 | O=C([C@H](O)c1cccc(-c2cccc(Cl)c2)c1)N1CCCc2nc(C3(c4cc(-c5ccccc5)cs4)CC3)[nH]c(=O)c2C1 [54-13] |
| < 50 | < 10 | CC(C)(C)c1cccc(-c2cccc([C@@H](O)C(=O)N3CCCc4nc(C5(c6cncc(-c7ccccc7)c6)CC5)[nH]c(=O)c4C3)c2)c1 [56-4] |
| < 50 | – | O=C([C@H](O)c1cccc(C(F)(F)F)c1)N1CCCc2nc(C3(c4ccnc(Oc5ccccc5)c4)CC3)[nH]c(=O)c2C1 [19-8] |
| < 50 | < 10 | O=C([C@H](O)c1cccc(-c2cccc(C(F)(F)F)c2)c1)N1CCCc2nc(C3(c4cccc(C5CCCCC5)c4)CC3)[nH]c(=O)c2C1 [52-2] |
| < 50 | < 3 | O=C([C@H](O)c1cccc(Cl)c1)N1CCCc2nc(C3(c4cccc(C5=CCCCC5)c4)CC3)[nH]c(=O)c2C1 [40-20] |
| < 50 | < 10 | O=C(C(O)c1cccc(-c2cc(Cl)cc(Cl)c2)c1)N1CCc2nc(C3(c4ccccc4)CC3)[nH]c(=O)c2C1 (stereo not shown) [44-10] |
| < 50 | < 10 | CC(C)c1csc(C2(c3nc4c(c(=O)[nH]3)CN(C(=O)[C@H](O)c3cccc(Cl)c3)CC4)CC2)c1 [15-8] |
| < 50 | < 10 | CC(C)c1csc(C2(c3nc4c(c(=O)[nH]3)CN(C(=O)[C@H](O)c3cccc(-c5cccc(Cl)c5)c3)CCC4)CC2)c1 [54-3] |
| < 50 | – | O=C(C(O)c1cccc(-c2ccccc2OC(F)(F)F)c1)N1CCc2nc(C3(c4ccccc4)CC3)[nH]c(=O)c2C1 (stereo not shown) [44-57] |
| < 50 | < 10 | O=C(/C=C/c1cccc(C(F)(F)F)c1)N1CCCc2nc(C3(c4cccc(Cl)c4)CC3)[nH]c(=O)c2C1 [17-117] |
| < 50 | < 3 | CC(C)Oc1cccc(-c2cccc([C@@H](O)C(=O)N3CCc4nc(C5(c6ccccc6)CC5)[nH]c(=O)c4C3)c2)c1 [44-104] |
| < 50 | – | CCOc1ccc(-c2cccc(C(O)C(=O)N3CCc4nc(C5(c6ccccc6)CC5)[nH]c(=O)c4C3)c2)cc1 (stereo not shown) [44-37] |
| < 50 | < 10 | O=C([C@H](O)c1cccc(-c2cccc(C(F)(F)F)c2)c1)N1CCCc2nc(C3(c4cncc(-c5ccccc5)c4)CC3)[nH]c(=O)c2C1 [56-5] |
| < 50 | < 10 | O=C([C@H](O)c1cccc(-c2cccc(OC(F)(F)F)c2)c1)N1CCCc2c(nc(C3(c4ccccc4)CC3)[nH]c2=O)C1 [49-56] |
| < 50 | < 3 | N#Cc1cc(Cl)cc(-c2cccc([C@@H](O)C(=O)N3CCCc4nc(C5(c6ccccc6)CC5)[nH]c(=O)c4C3)c2)c1 [49-44] |
| < 50 | – | O=C(C(O)c1cccc(-c2cccc(C(F)(F)F)c2Cl)c1)N1CCc2nc(C3(c4ccccc4)CC3)[nH]c(=O)c2C1 (stereo not shown) [44-46] |
| < 50 | < 10 | O=C(C(O)c1cccc(Oc2ccccc2)c1)N1CCCc2nc(C3(c4cccc(Cl)c4)CC3)[nH]c(=O)c2C1 (stereo not shown) [17-33] |
| < 50 | < 10 | O=C(C(O)c1cccc(SC(F)(F)F)c1)N1CCCc2nc(C3(c4cccs4)CC3)[nH]c(=O)c2C1 (stereo not shown) [18-6] |
